Values of other authors, collected in patent US4833164A (E. I. Du Pont de Nemours and Company, priority 1986, dated 1989).

Test system: lipoxygenase
Details: Nakadate et al.; Van Wauwe and Goossens; Panganamala et al.

## Oc1cccc2ccccc12 [Example 1-naphthol, 1-naphthol]
  lipoxygenase inhibitor (literature): lipoxygenase inhibitor
